In patent US20230234936A1, “COMPOUND FOR TARGETING AND DEGRADING PROTEIN, AND PREPARATION METHOD THEREFOR AND USE THEREOF” (SHANGHAI LEADINGTAC PHARMACEUTICAL CO., LTD., priority 2020, published 2023):
pIC50: −log10 of the molar value.

Columns and labels:
IRAK4 kinase = target: T1, IRAK4 kinase (Homo sapiens, UniProt Q9NWZ3); assay: IRAK4 kinase activity test (KinEASE-STK S1 HTRF kit); type: biochemical; conditions: 2.5 nM kinase, 1 μM biotinylated polypeptide substrate, 7 μM ATP, 37° C. 120 min
T1 sequence (Q9NWZ3 1-460): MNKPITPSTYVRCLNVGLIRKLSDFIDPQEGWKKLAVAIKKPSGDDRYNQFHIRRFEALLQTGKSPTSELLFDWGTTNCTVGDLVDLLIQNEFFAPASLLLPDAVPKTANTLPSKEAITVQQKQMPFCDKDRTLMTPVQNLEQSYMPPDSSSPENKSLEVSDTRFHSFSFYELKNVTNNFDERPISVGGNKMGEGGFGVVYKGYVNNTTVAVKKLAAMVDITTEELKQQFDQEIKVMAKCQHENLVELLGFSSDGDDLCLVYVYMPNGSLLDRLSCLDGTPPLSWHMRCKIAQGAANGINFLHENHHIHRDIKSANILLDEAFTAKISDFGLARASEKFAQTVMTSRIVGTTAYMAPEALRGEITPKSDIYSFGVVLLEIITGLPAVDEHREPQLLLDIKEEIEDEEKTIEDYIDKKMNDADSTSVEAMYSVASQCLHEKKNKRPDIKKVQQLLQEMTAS
Procedure: KinEASE-STK S1 serine/threonine kinase kit (Cisbio) was used to detect the inhibitory effect of the compound on IRAK4 kinase activity. The specific method was: the compound was dissolved in dimethyl sulfoxide, and then it was diluted with the buffer solution of the kit by equal gradient to make the final concentration range of the tested compound in the reaction system 10000 nM-0.038 nM, then 2.5 nM kinase, 1 μM biotinylated polypeptide substrate and 7 μM adenosine triphosphate (ATP) were added in sequence and incubated at 37° C. for 120 min. Subsequently, anti-phosphorylated serine/threonine antibody coupled with europium element compound and modified XL665 streptavidin were added to the reaction system to terminate the reaction. After incubating at room temperature for 1 h, the fluorescence intensity of each well at the emission wavelength of 620 nm and 665 nm and the excitation wavelength of 337 nm was determined in HTRF mode on the microplate reader EnVision(PerkinElmer), the ratio value was calculated using the formula Ratio=(665 nm/620 nm)×10^4. By comparing with the fluorescence intensity ratio of the control group, the inhibition rate of the compound at each concentration was calculated, and then the IC50 value of the compound was obtained by fitting the nonlinear curve with the logarithmic concentration-inhibition rate by GraphPad Prism 7.

[1] = target: T2, IRAK4 protein in THP-1 cells (Homo sapiens, UniProt Q9NWZ3); assay: Degradation of IRAK4 in THP-1 cells (Western blot); type: cell-based; conditions: 24 hours, compound 1-3000 nM
T2 construct: endogenous in cells; host or cells: THP-1
T2 sequence (Q9NWZ3 1-460): T1 sequence (Q9NWZ3 1-460)
Procedure: Each well of the 24-well cell culture plate was inoculated with 0.95 mL THP-1 cells (stem cell bank of Chinese academy of sciences) with a cell density of 5×10^5 cells/well. The cell plate was placed in a 5% carbon dioxide incubator and cultured overnight at 37° C., then 50 μL compound in dimethyl sulfoxide was added. The final concentration of the compound was in the range of 1-3000 nM. After continuous cultivation for 24 hours, the cells were collected into a 1.5 mL centrifuge tube, centrifuged at 1000 rpm and 4° C. for 5 minutes. Cell precipitation was cleaned twice with 1-DPBS, resuspended cells were lysed with 200 μL lysate (cell lysate was Western and IP cell lysate (Beyotime), supplemented with 1 mM mixture of phenylmethylsulfonyl fluoride and protease inhibitor (Beyotime)), left on ice for 30 minutes, then centrifuged at 14000 g at 4° C. for 10 minutes, and the supernatant was taken to detect IRAK4 protein level by Western blot.
Western blot method: The total protein concentration in the supernatant of cell lysis was determined by BCA protein quantitative kit (Tiangen). According to the concentration of total protein detected by BCA, the supernatant was adjusted to 0.2 μg/μL with PBS and 5× SDS-PAGE protein loading buffer (Beyotime), bathed in water at 100° C. for 10 minutes, then placed in ice bath for 5 minutes, centrifuged at 14000 g and 4° C. for 5 minutes, and then collected as WB loading sample. Prefabricated glue (KeyGEN) was used for protein electrophoresis with a loading amount of 10 μL (total protein 2 μg). After Tris-MOPS-SDS electrophoresis solution (Adamas), 120V constant pressure electrophoresis was performed. After electrophoresis, the protein on the adhesive strip was transferred to PVDF membrane with a constant current of […] for 50 minutes. After the membrane was transferred, the membrane was placed in 1×QuickBlock blocking buffer (Beyotime) and incubated for 30 minutes at room temperature. After blocking, PVDF membranes were incubated with IRAK4 primary antibody (Abcam) overnight at 4°, the membranes were washed with TBST buffer (2.4 g Tris, 8.8 g NaCl, 1.5 mL Tween 20, pH adjusted to 7.4, constant volume to 1 L) for 30 minutes, incubated with secondary antibody (Abcam) for 2 hours at room temperature, finally incubated with Clarity Western ECL Substrate(BIO-RAD) for 5 minutes for luminescence development, chemiluminescence imaging system (Clinx, chemiScope 6200 Touch) for development and protein mapping photography. The protein map was analyzed by Clinx chemiluminescence analysis software for grayscale values. Using the formula: grayscale correction value=(target protein grayscale value/corresponding internal reference grayscale value)×10^3, the grayscale correction value of each sample was calculated. The degradation rate was calculated by comparing with the grayscale correction value of the control group. Furthermore, DC50 and Dmax values of the compound were obtained by the nonlinear curve fitting with the logarithmic concentration-inhibition rate by GraphPad Prism 7.

## COc1ccc(C(=O)N2CCC3(CCC(CN4CCC(n5cc6cc(NC(=O)c7cccc(C(F)(F)F)n7)c(C(C)(C)O)cc6n5)CC4)CC3)CC2)cc1N1CCC(=O)NC1=O [Example 33, N-(2-(1-((3-(3-(2-4-dioxotetrahydro-pyrimidin-1 (2H)-yl)-4-me-thoxybenzoyl)-3-azaspiro [5.5]undec-9-yl)methyl)piperdin-4-yl)-6-(2-hydroxyprop-2-yl)-2H-indazol-5-yl)-6-(trifluoro-methyl) pyridinecarbox-amide]
IRAK4 kinase
  pIC50: 7.76
[1]
  DC50: 2.1 nM
  Dmax: 96.6%

## COc1cc2nn(C3CCN(CCCCCN(C)C(=O)c4ccc(OC)c(N5CCC(=O)NC5=O)c4)CC3)cc2cc1NC(=O)c1cccc(C(F)(F)F)n1 [Example 9, N-(2-(1-(5-(3-(2,4-dioxotetrahydropyrimidin-1 (2H)-yl)-4-methoxy-N-methylbenzamido)pentyl)piperidin-4-yl)-6-methoxy-2H-indazol-5-yl)-6-(trifluoromethyl) pyridinecarboxamide]
IRAK4 kinase
  pIC50: 7.74
[1]
  DC50: 16.4 nM
  Dmax: 94.3%

## COc1cc2nn([C@H]3CC[C@H](CN(C)C4CCN(C5CCN(C(=O)c6ccc(Cl)c(N7CCC(=O)NC7=O)c6)CC5)CC4)CC3)cc2cc1NC(=O)c1cccc(C(F)(F)F)n1 [Example 65, N-(2-((1r,4r)-4-(((1′-(4-chloro-3-(2,4-dioxotetrahydro-pyrimidin-1 (2H)-yl)benzoyl)-[1,4′-bi-piperidin]-4-yl) (methyl)amino)methyl)cyclohexyl)-6-methoxy-2H-indazol-5-yl)-6-(trifluoro-methyl) pyridinecarbox-amide]
IRAK4 kinase
  pIC50: 8.80
[1]
  DC50: 13.4 nM
  Dmax: 98.3%

## COc1ccc(C(=O)N2CCC3(CCC(CCN4CCC(n5cc6cc(NC(=O)c7cccc(C(F)(F)F)n7)c(C(C)(C)O)cc6n5)CC4)CC3)CC2)cc1N1CCC(=O)NC1=O [Example 21, N-(2-(1-(2-(3-(3-(2,4-dioxotetrahydro-pyrimidin-1 (2H)-yl)-4-me-thoxybenzoyl)-3-azaspiro [5.5]undec-9-yl)ethyl)piperidin-4-yl)-6-(2-hydroxyprop-2-yl)-2H-indazol-5-yl)-6-(trifluoro-methyl) pyridinecarbox-amide]
IRAK4 kinase
  pIC50: 7.74
[1]
  DC50: 4 nM
  Dmax: 90.1%

## COc1ccc(C(=O)N2CCC3(CC2)CC(CCN2CCC(n4cc5cc(NC(=O)c6cccc(C(F)(F)F)n6)c(C(C)(C)O)cc5n4)CC2)C3)cc1N1CCC(=O)NC1=O [Example 26]
IRAK4 kinase
  pIC50: 8.19
[1]
  DC50: 1 nM
  Dmax: 86.9%

## CC(C)(O)c1cc2nn(C3CCN(CC4CCC5(CC4)CCN(C(=O)c4ccc(F)c(N6CCC(=O)NC6=O)c4)CC5)CC3)cc2cc1NC(=O)c1cccc(C(F)(F)F)n1 [Example 45, N-(2-(1-((3-(3-(2,4-dioxotetrahydro-pyrimidin-1 (2H)-yl)-4-fluoro-benzoyl)-3-azaspiro[5.5]undec-9-yl)methyl)piperidin-4-yl)-6-(2-hydroxyprop-2-yl)-2H-indazol-5-yl)-6-(trifluoro-methyl) pyridinecarbox-amide]
IRAK4 kinase
  pIC50: 7.63
[1]
  DC50: 1.9 nM
  Dmax: 98.2%

## COc1cc2nn(C3CCN(CC4CCC5(CC4)CCN(C(=O)c4ccc(OC)c(N6CCC(=O)NC6=O)c4)CC5)CC3)cc2cc1NC(=O)c1cccc(C(F)(F)F)n1 [Example 30, N-(2-(1-((3-(3-(2,4-dioxotetrahydro-pyrimidin-1 (2H)-yl)-4-me-thoxybenzoyl)-3-azaspiro[5.5]undec-9-yl)methyl)piperidin-4-yl)-6-methoxy-2H-indazol-5-yl)-6-(tri-fluoromethyl) pyridinecarbox-amide]
IRAK4 kinase
  pIC50: 7.80
[1]
  DC50: 2.3 nM
  Dmax: 98.4%

## COc1cc2nn(C3CCN(CC4CCC5(CC4)CCN(C(=O)c4ccc(F)c(C6CCC(=O)NC6=O)c4)CC5)CC3)cc2cc1NC(=O)c1cccc(C(F)(F)F)n1 (centres unmarked) [Example 42, N-(2-(1-((3-(3-(2,6-dioxopiperidin-3-yl)-4-fluoro-benzoyl)-3-azaspiro [5.5]undec-9-yl)methyl)piperidin-4-yl)-6-methoxy-2H-indazol-5-yl)-6-(trifluoromethyl) pyridinecarbox-amide]
IRAK4 kinase
  pIC50: 7.41
[1]
  DC50: 7.8 nM
  Dmax: 100%

## O=C1CCN(c2cc(C(=O)N3CCC4(CCC(CN5CCC(n6cc7cc(NC(=O)c8cccc(C(F)(F)F)n8)c(OC(F)F)cc7n6)CC5)CC4)CC3)ccc2Cl)C(=O)N1 [Example 66]
IRAK4 kinase
  pIC50: 7.67
[1]
  DC50: 16.1 nM
  Dmax: 95.3%

## COc1cc2nn([C@H]3CC[C@H](CN(C)CCCCC4CCN(C(=O)c5ccc(Cl)c(N6CCC(=O)NC6=O)c5)CC4)CC3)cc2cc1NC(=O)c1cccc(C(F)(F)F)n1 [Example 67, N-(2-((1r,4r)-4-(((4-(1-(4-chloro-3-(2,4-dioxotetrahydro-pyrimidin-1 (2H)-yl)benzoyl)piperidin-4-yl)butyl) (methyl)amino)methyl)cyclohexyl)-6-methoxy-2H-indazol-5-yl)-6-(trifluoro-methyl) pyridinecarbox-amide]
IRAK4 kinase
  pIC50: 8.29
[1]
  DC50: 11.5 nM
  Dmax: 99.2%

## CC(C)(C)C(=O)OCN1C(=O)CCN(c2cc(C(=O)N3CCC4(CCC(CCN5CCC(n6cc7cc(NC(=O)c8cccc(C(F)(F)F)n8)c(C(C)(C)O)cc7n6)CC5)CC4)CC3)ccc2Cl)C1=O [Example 71, methyl (3-(2-chloro-5-(9-(2-(4-(6-(2-hydroxyprop-2-yl)-5-(6-(trifluoromethyl)pyridinecarboxamido)-2H-indazol-2-yl)piperidin-1-yl)ethyl)-3-azaspiro[5.5]undecyl-3-carbonyl)phenyl)-2,6-dioxotetrahydropyrimidin-1 (2H)-yl) pivalate]
IRAK4 kinase
  pIC50: 6.94
[1]
  DC50: 3.7 nM
  Dmax: 97%

## COc1cc2nn(C3CCN(CCC4CC5(CCN(C(=O)c6ccc(Cl)c(N7CCC(=O)NC7=O)c6)CC5)C4)CC3)cc2cc1NC(=O)c1cccc(C(F)(F)F)n1 [Example 43, N-(2-(1-(2 (7-(4-chloro-3-(2,4-dioxotetrahydro-pyrimidin-1 (2H)-yl)benzoyl)-7-azospiro [3.5]non-2-yl)ethyl)piperidin-4-yl)-6-methoxy-2H-indazol-5-yl)-6-(trifluoromethyl) pyridinecarbox-amide]
IRAK4 kinase
  pIC50: 7.62
[1]
  DC50: 4.9 nM
  Dmax: 98.7%

## COc1cc2nn(C3CCN(CCOCCOc4ccc5c(c4)C(=O)N(C4CCC(=O)NC4=O)C5=O)CC3)cc2cc1NC(=O)c1cccc(C(F)(F)F)n1 (centres unmarked) [Control group 1, N-(2-(1-(2-(2-((2-(2,6-dioxopiperidin-3-yl)-1,3-dioxoisoindol-5-yl)oxy)ethoxy)ethyl)piperidin-4-yl)-6-methoxy-2H-indazol-5-yl)-6-(trifluoromethyl) pyridinecarboxamide, reference compound]
IRAK4 kinase
  pIC50: 7.35
[1]
  DC50: 38.1 nM
